Data as given in patent publication US20080207632A1, “PROTEIN KINASE INHIBITORS” (SUPERGEN, INC., priority 2006, published 2008).
Where two headings read alike, the source gives them in different places.

Tests used:
[1] = test system: MDA-MB-231 breast carcinoma cells; experiment: cell proliferation assay (Cell-Titer-Glo), MDA-MB-231; type: cell-based; conditions: Homo sapiens
Protocol: Cell culture-based assays can be used to evaluate the ability of compounds of the invention to inhibit one or more cellular activities, such as cancer cell growth and/or survival. Numerous cancer cell lines can be obtained from the American Type Culture Collection (ATCC) and other sources. Briefly, cells are seeded into 96-well, tissue-culture treated, opaque white plates (Thermo Electron, Vantaa, Finland), at between 5000 and 10000 cells per well, depending on the speed of cell proliferation, in 100 μl of appropriate growth medium (determined by the ATCC). Cells are then exposed to the appropriate concentration of drug or an equal amount of DMSO (drug diluent) and allowed to grow in its presence for 96 hours. Following this, 100 μl of Cell-Titer-Glo reagent (Promega, Inc., Madison, Wis.) is added to each well. Plates are then shaken for 2 minutes at room temperature to allow for cell lysis and incubated for 10 minutes to stabilize the luminescent signal. Similar to the Kinase-Glo assay reagent from Promega, this reagent contains both luciferase enzyme and its substrate luciferin. Luciferase, activated by ATP in the cell lysate, catalyzes the conversion of luciferin to oxyluciferin, a reaction which produces light. The amount of light produced is proportionate to the amount of ATP in the cell lysate, which is itself proportional to cell number and gives an index of cellular proliferation.
Compound 1-1 and Compound 2-11 were tested in a cell proliferation assay to determine potency in a cell-based assay format. Briefly, MDA-MB-231 breast carcinoma cells were inoculated onto 96-well plates and incubated in the presence of compounds for 96 hours. Following incubation, cells were lysed and ATP content used as a surrogate for cell number, using the Cell-Titer-Glo Luminescent Cell Viability Assay Kit (Promega Corp.). IC50 values, representing the concentration required to reduce cell number to 50% of untreated controls, were determined to be 20 uM for Compound 1-1 and 10 uM for Compound 2-11.

[2] = test system: HT-29 human colon cancer cells; experiment: HT-29 xenograft study in mice (Example 19); type: in vivo; conditions: 25 mg/kg intraperitoneally, q.d.x 5 for two weeks
Protocol: In order to evaluate the effectiveness of compound 1-1 against tumor cells in a living system, a xenograft study was performed in mice. 1×10^7 HT-29 human colon cancer cells were injected subcutaneously into 16 Nu/Nu athymic nude mice (Charles River Laboratories, Wilmington, Mass.). Tumor volume was measured according to the formula ((Width)^2*Length)/2. Tumors were allowed to grow to approximately 100 mm^3 in volume (Day 0), at which point mice were randomized to two groups: Eight mice were treated with 25 mg/kg compound 1-1, while the other eight were given an equal volume of drug vehicle. For this study, the drug vehicle used was 60% propylene glycol, 30% polyethylene glycol 300, 10% ethanol with 150 mg/mL 2-hydroxypropyl-beta-cyclodextrin. Each mouse received 0.1 mL of drug or vehicle intraperitoneally on a q.d.x 5 schedule for two weeks, with two days rest between cycles.

[3] = test system: MiaPaCa-2 (pancreas); experiment: in vitro cytotoxicity assay (Cell-Titer-Glo), MiaPaCa-2; type: cell-based; conditions: Homo sapiens, MIA PaCa-2; Table 10; 96 hours; read-out: IC50 MiaPaCa-2 (inhibit cell growth to 50% of untreated)
[4] = test system: Panc-1 cells; experiment: hollow fiber xenograft model (MTT), Panc-1; type: in vivo, athymic nude mice; conditions: Panc-1 fibers implanted SC
Protocol: (§1) Compound 2-3 was tested against three tumor types in athymic nude mice using the hollow fiber xenograft model. After incubation and growth overnight, drug-permeable fibers containing tumor cells were surgically implanted either intraperitoneally (IP) or subcutaneously (SC) and allowed to grow for 24-hours. After treatment with compound 2-3, fibers were removed and tumor cell growth was measured using the MTT assay. A549, Panc-1 or HT-29 cells were injected into separate fibers and each mouse received a fiber containing each cell line both SC and IP totaling six fibers per mouse.

[5] = test system: HT-29 Colorectal Xenograft; experiment: HT-29 colorectal xenograft, route of administration (Example 70); type: in vivo, mice; conditions: intraperitoneal ALZET osmotic pump, 25 mg/kg/day over 14 days
Protocol: This study examined the effect of route of administration on tumor growth inhibition. Tumor bearing mice were treated with compound 2-3 intraperitoneally (ALZET osmotic pumps, delivering 25 mg/kg/day over 14 days) or intravenously (80 mg/kg/d on Days 1, 4 and 7). Because of difficulty in maintaining tail vein patency, this group of mice received subsequent dose intraperitoneally on Days 10, 11, 12 and 15. Compound 2-3 delivered continuously via the osmotic pump decreased tumor growth rate to 10.75 mm^3/d, compared with vehicle-treated tumor growth rate of 28.28 mm^3/d (see FIG. 5). Treated/Control ratio was 38%. […] However, after dosing was switched to IP, this effect was lost.

[6] = test system: HT-29 cells; experiment: hollow fiber xenograft model (MTT), HT-29; type: in vivo, athymic nude mice; conditions: HT-29 fibers implanted IP
Protocol: as §1

[7] = test system: HT-29 human colon cancer cells; experiment: HT-29 xenograft study in mice (Example 57); type: in vivo; conditions: 5 mg/kg IP, QDx5 for three weeks
Protocol: In order to evaluate the effectiveness of compound 2-5 against tumor cells in a living system, a xenograft study was performed in mice. 1×10^7 HT-29 human colon cancer cells were injected subcutaneously into Nu/Nu athymic nude mice (Charles River Laboratories, Wilmington, Mass.). Tumor volume was measured according to the formula ((Width)^2*Length)/2. Tumors were allowed to grow to approximately 200 mm^3 in volume (Day 0), at which point mice were randomized to three groups. Eight mice were grouped to receive SGI-1097 as treatment, and two groups of eight would receive vehicle alone as a negative control. The SGI-1097 compound was formulated in the following vehicle: 10% EtOH; 30% PEG 300; 60% solution of 300 mg/ml 2-Hydroxypropyl-beta-cyclodextrin in water.
In the treatment group, each animal received 5 mg/kg of compound 2-5 in the aforementioned vehicle at a volume of 100 μl, dosed IP. The dosing schedule was QDx5 for three weeks. […]
Another negative control group was dosed PO with corn oil on the same dosing schedule. The tumor volumes for both the treated and untreated groups were measured twice a week for the three week dosing period, and for one week after the dosing period.

CC(=O)NS(=O)(=O)c1ccc(NC(=S)N2CCN(c3ncnc4[nH]c5cc(C(F)(F)F)c(Cl)cc5c34)CC2)cc1 [Compound 1-1, 4-(6-Chloro-7-trifluoromethyl-9H-pyrimido[4,5-b]indol-4-yl)-piperazine-1-carbothioic acid (4-acetylsulfamoyl-phenyl)-amide]
IC50 ([1]; Example 65, 96 hours, read-out: IC50 (reduce cell number to 50% of untreated controls)): 20 µM
IC50 ([1]; Table 10, 96 hours, read-out: IC50 MDA-MB-231 (inhibit cell growth to 50% of untreated)): 20.2 µM
toxicity through the duration of the study [2]: No noticeable toxicity
tumor growth inhibition in vivo [2]: effective for inhibiting tumor growth in vivo
IC50 [3]: 66.6 µM

COc1cc2[nH]c3ncnc(N4CCN(C(=S)Nc5ccc(S(=O)(=O)Nc6ccc(F)cc6)cc5)CC4)c3c2cc1OC [Compound 2-3, 4-(6,7-dimethoxy-9H-pyrimido[4,5-b]indol-4-yl)-N-(4-(N-(4-fluorophenyl)sulfamoyl)phenyl)piperazine-1-carbothioamide]
tumor cell growth in fibers ([4]; 20 mg/kg intravenous): 58.7 % growth
tumor cell growth in fibers ([4]; 40 mg/kg intravenous): 60.9 % growth
Treated/Control ratio [5]: 38%
tumor growth rate [5]: 10.75 mm^3/d
tumor cell growth in fibers ([6]; 20 mg/kg intravenous): 53.8%
tumor cell growth in fibers ([6]; 40 mg/kg intravenous): 73.4%

COc1ccc2c(c1)[nH]c1ncnc(N3CCN(C(=S)Nc4ccc(S(=O)(=O)Nc5ccc(F)cc5)cc4)CC3)c12 [Compound 2-5, 4-(7-methoxy-9H-pyrimido[4,5-b]indol-4-yl)-N-(4-(N-(4-fluorophenyl)sulfamoyl)phenyl)piperazine-1-carbothioamide]
toxicity through the duration of the study [7]: No noticeable toxicity
tumor growth inhibition in vivo [7]: effective for inhibiting tumor growth in vivo
